Assay results published in paper PMC10764104, “Discovery of Molecular Glue Degraders via Isogenic Morphological Profiling” (ACS Chemical Biology, 2023).

Molecular target: T1, GSPT2 G566N (Homo sapiens, UniProt Q8IYD1, G566N)
T1 construct: expressed in transfected cells; host or cells: RKO cells, lentiviral transduction, puromycin-selected
Test: Western blot (HA-tag) of G-loop mutant GSPT2 in RKO cells
Assay type: cell-based
Details: RKO cells stably overexpressing HA-GSPT2 G566N, 16 h; 10 μM FL2-14 or 10 nM CC-885
Description: Figure 3 FL2-14 is a selective GSPT2 molecular glue degrader. (A) Structure of FL2-14 comprising fluorosulfate scaffold FL2 (black) and tail group modification 14 (blue). (B) DMSO-normalized quantitative proteomics after 16 h of treatment with FL2-14 (10 μM) in RKO WT (n = 2). […] (C) Structural alignment of AlphaFold models of GSPT1 (AF-P15170-F1-model_v4 in gray) and GSPT2 (AF-Q8IYD1-F1-model_v4 in blue). (D) Validation of GSPT2 degradation by FL2-14. […] (E) Dose–response of FL2-14 in RKO and HEK293T cells. Cells were treated with the FL2-14 (0 to 10 μM) for 16 h. (F) Degradation of GSPT2^WT or GSPT2^G566N.
Prediction of the G‐loop degron sequence in GSPT2
We first compiled all CRBN degron sequences with known crystal structures (Table S 2). We subsequently discarded 6UML as its degron sequence included an alanine instead of the typical glycine observed in the seventh amino acid residue of other degron sequences, leaving six degron sequences. We then scanned the latest AlphaFold structure of GSPT215 for a potential stretch of 10 amino acids that would align best with each degron sequence. We yielded the same stretch of amino acid residues from position 560 to 569 ([…]) and RMSD values under 0.5 Å.
Table S 2: List of crystal structures used for the computational prediction of the G‐loop degron sequence […]
PDB code Resolution (Å) Chain Segment Sequence Reference
Analysis of G‐loop mutation […]

T1 sequence (Q8IYD1 whole entry G566N): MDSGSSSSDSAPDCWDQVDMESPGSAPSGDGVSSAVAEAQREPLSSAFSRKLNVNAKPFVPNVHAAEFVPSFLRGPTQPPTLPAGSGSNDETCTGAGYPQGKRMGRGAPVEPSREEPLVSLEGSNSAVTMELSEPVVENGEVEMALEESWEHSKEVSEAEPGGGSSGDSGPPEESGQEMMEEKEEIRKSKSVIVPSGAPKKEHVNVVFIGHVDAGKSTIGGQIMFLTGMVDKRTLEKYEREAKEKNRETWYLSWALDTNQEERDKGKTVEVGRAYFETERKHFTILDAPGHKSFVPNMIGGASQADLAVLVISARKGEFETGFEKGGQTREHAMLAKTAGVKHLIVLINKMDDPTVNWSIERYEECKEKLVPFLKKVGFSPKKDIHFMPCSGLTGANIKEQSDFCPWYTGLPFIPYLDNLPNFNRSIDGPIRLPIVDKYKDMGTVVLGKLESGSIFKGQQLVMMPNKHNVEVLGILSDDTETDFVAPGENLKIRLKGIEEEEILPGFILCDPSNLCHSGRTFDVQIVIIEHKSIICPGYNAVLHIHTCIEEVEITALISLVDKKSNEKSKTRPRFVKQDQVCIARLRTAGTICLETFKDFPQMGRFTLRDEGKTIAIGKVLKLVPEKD

degradation of HA-tagged GSPT2 G566N (glycine of G-loop replaced by asparagine): rescued degradation of GSPT2
SMILES: Cc1ccc(NC(=O)NCc2ccc3c(c2)CN(C2CCC(=O)NC2=O)C3=O)cc1Cl (stereo not shown) [CC-885, reference compound]
